Reference: US20230250129A1, “NEUROACTIVE STEROIDS AND COMPOSITIONS THEREOF” (Sage Therapeutics, Inc., priority 2020, published 2023)

Target: [35S]-TBPS binding, rat brain cortical membranes (GABAA receptor)
Assay: Steroid inhibition of [35S]-TBPS binding
Conditions: 3 nM [35S]-TBPS, in the presence of 5 mM GABA, 90 min at room temp
Protocol: Steroid Inhibition of TBPS Binding
[^35S]-t-Butylbicyclophosphorothionate (TBPS) binding assays using rat brain cortical membranes in the presence of 5 mM GABA has been described (Gee et al, J. Pharmacol. Exp. Ther. 1987, 241, 346-353; Hawkinson et al, Mol. Pharmacol. 1994, 46, 977-985; Lewin, A. H et al., Mol. Pharmacol. 1989, 35, 189-194).
Briefly, cortices are rapidly removed following decapitation of carbon dioxide-anesthetized Sprague-Dawley rats (200-250 g). The cortices are homogenized in 10 volumes of ice-cold 0.32 M sucrose using a glass/teflon homogenizer and centrifuged at 1500×g for 10 min at 4° C. The resultant supernatants are centrifuged at 10,000×g for 20 min at 4° C. to obtain the P2 pellets. The P2 pellets are resuspended in 200 mM NaCl/50 mM Na—K phosphate pH 7.4 buffer and centrifuged at 10,000×g for 10 min at 4° C. This washing procedure is repeated twice and the pellets are resuspended in 10 volumes of buffer. Aliquots ([…]) of the membrane suspensions are incubated with 3 nM [^35S]-TBPS and […] aliquots of test drug dissolved in dimethyl sulfoxide (DMSO) (final 0.5%) in the presence of 5 mM GABA. The incubation is brought to a final volume of 1.0 mL with buffer. Nonspecific binding is determined in the presence of […] and ranged from 15 to 25%. Following a 90 min incubation at room temp, the assays are terminated by filtration through glass fiber filters (Schleicher and Schuell No. 32) using a cell harvester (Brandel) and rinsed three times with ice-cold buffer. Filter bound radioactivity is measured by liquid scintillation spectrometry. Non-linear curve fitting of the overall data for each drug averaged for each concentration is done using Prism (GraphPad). […] The concentration of test compound producing 50% inhibition (IC50) of specific binding and the maximal extent of inhibition (Imax) are determined for the individual experiments with the same model used for the overall data and then the means±SEM.s of the individual experiments are calculated.
Various compounds are or can be screened to determine their potential as modulators of [^35S]-TBPS binding in vitro. These assays are or can be performed in accordance with the above

Question: How did the IC50 turn out when CCC[C@@]1(O)CC[C@H]2[C@H](CC[C@@H]3[C@@H]2CC[C@]2(C)[C@@H](C(=O)Nc4cnc(C#N)cn4)CC[C@@H]32)C1 [Compound 69, (3R,5R,8R,9R,10S,13S,14S,17S)—N-(5-cyanopyrazin-2-yl)-3-hydroxy-13-methyl-3-propylhexadecahydro-1H-cyclopenta[a]phenanthrene-17-carboxamide] was run?
Answer: < 100 nM

Question: Which IC50 does the source give for COC[C@@]1(O)CC[C@@]2(C)[C@H](CC[C@@H]3[C@@H]2CC[C@]2(C)[C@@H](C(=O)Nc4ccc(C#N)cn4)CC[C@@H]32)C1 [Compound 70, (3R,5R,8R,9S,10S,13S,14S,17S)—N-(5-cyanopyridin-2-yl)-3-hydroxy-3-(methoxymethyl)-10,13-dimethylhexadecahydro-1H-cyclopenta[a]phenanthrene-17-carboxamide] here?
Answer: < 100 nM

Question: COC[C@@]1(O)CC[C@H]2[C@H](CC[C@@H]3[C@@H]2CC[C@]2(C)[C@@H](C(=O)Nc4ccc(C#N)cn4)CC[C@@H]32)C1 [Compound 71, (3R,5R,8R,9R,10S,13S,14S,17S)—N-(5-cyanopyridin-2-yl)-3-hydroxy-3-(methoxymethyl)-13-methylhexadecahydro-1H-cyclopenta[a]phenanthrene-17-carboxamide] was tested. Which IC50 did it give?
Answer: < 100 nM

Question: How did the IC50 turn out when COC[C@@]1(O)CC[C@@]2(C)[C@H](CC[C@@H]3[C@@H]2CC[C@]2(C)[C@@H](C(=O)Nc4cnc(C#N)cn4)CC[C@@H]32)C1 [Compound 72, (3R,5R,8R,9S,10S,13S,14S,17S)—N-(5-cyanopyrazin-2-yl)-3-hydroxy-3-(methoxymethyl)-10,13-dimethylhexadecahydro-1H-cyclopenta[a]phenanthrene-17-carboxamide] was run?
Answer: < 100 nM

Question: Which IC50 does the source give for COC[C@@]1(O)CC[C@H]2[C@H](CC[C@@H]3[C@@H]2CC[C@]2(C)[C@@H](C(=O)Nc4cnc(C#N)cn4)CC[C@@H]32)C1 [Compound 73, (3R,5R,8R,9R,10S,13S,14S,17S)—N-(5-cyanopyrazin-2-yl)-3-hydroxy-3-(methoxymethyl)-13-methylhexadecahydro-1H-cyclopenta[a]phenanthrene-17-carboxamide] here?
Answer: < 100 nM

Question: How did the IC50 turn out when CCC[C@@]1(O)CC[C@@]2(C)[C@H](CC[C@@H]3[C@@H]2CC[C@]2(C)[C@@H](C(=O)Nc4cnc(C#N)cn4)CC[C@@H]32)C1 [Compound 74, (3R,5R,8R,9S,10S,13S,14S,17S)—N-(5-cyanopyrazin-2-yl)-3-hydroxy-10,13-dimethyl-3-propylhexadecahydro-1H-cyclopenta[a]phenanthrene-17-carboxamide] was run?
Answer: < 100 nM

Question: Which IC50 does the source give for CCOC[C@@]1(O)CC[C@@]2(C)[C@H](CC[C@@H]3[C@@H]2CC[C@]2(C)[C@@H](C(=O)Nc4cnc(C#N)cn4)CC[C@@H]32)C1 [Compound 75, (3R,5R,8R,9S,10S,13S,14S,17S)—N-(5-cyanopyrazin-2-yl)-3-(ethoxymethyl)-3-hydroxy-10,13-dimethylhexadecahydro-1H-cyclopenta[a]phenanthrene-17-carboxamide] here?
Answer: < 100 nM

Question: CCOC[C@@]1(O)CC[C@H]2[C@H](CC[C@@H]3[C@@H]2CC[C@]2(C)[C@@H](C(=O)Nc4cnc(C#N)nc4)CC[C@@H]32)C1 [Compound 76, (3R,5R,8R,9R,10S,13S,14S,17S)—N-(2-cyanopyrimidin-5-yl)-3-(ethoxymethyl)-3-hydroxy-13-methylhexadecahydro-1H-cyclopenta[a]phenanthrene-17-carboxamide] was tested. Which IC50 did it give?
Answer: < 100 nM

Question: With CCOC[C@@]1(O)CC[C@H]2[C@H](CC[C@@H]3[C@@H]2CC[C@]2(C)[C@@H](C(=O)Nc4cc(C#N)ncn4)CC[C@@H]32)C1 [Compound 77, (3R,5R,8R,9R,10S,13S,14S,17S)—N-(6-cyanopyrimidin-4-yl)-3-(ethoxymethyl)-3-hydroxy-13-methylhexadecahydro-1H-cyclopenta[a]phenanthrene-17-carboxamide] as the compound, how does the IC50 read?
Answer: < 100 nM

Question: For CCOC[C@@]1(O)CC[C@H]2[C@H](CC[C@@H]3[C@@H]2CC[C@]2(C)[C@@H](C(=O)Nc4ccnc(C#N)n4)CC[C@@H]32)C1 [Compound 78, (3R,5R,8R,9R,10S,13S,14S,17S)—N-(2-cyanopyrimidin-4-yl)-3-(ethoxymethyl)-3-hydroxy-13-methylhexadecahydro-1H-cyclopenta[a]phenanthrene-17-carboxamide], which IC50 is on record?
Answer: < 100 nM

Question: For CCOC[C@@]1(O)CC[C@H]2[C@H](CC[C@@H]3[C@@H]2CC[C@]2(C)[C@@H](C(=O)Nc4nccc(C#N)n4)CC[C@@H]32)C1 [Compound 79, (3R,5R,8R,9R,10S,13S,14S,17S)—N-(4-cyanopyrimidin-2-yl)-3-(ethoxymethyl)-3-hydroxy-13-methylhexadecahydro-1H-cyclopenta[a]phenanthrene-17-carboxamide], which IC50 is on record?
Answer: 100 to 1000 nM

Question: CCC[C@@]1(O)CC[C@H]2[C@H](CC[C@@H]3[C@@H]2CC[C@]2(C)[C@@H](C(=O)Nc4ccc(F)cn4)CC[C@@H]32)C1 [Compound 81, (3R,5R,8R,9R,10S,13S,14S,17S)—N-(5-fluoropyridin-2-yl)-3-hydroxy-13-methyl-3-propylhexadecahydro-1H-cyclopenta[a]phenanthrene-17-carboxamide] was tested. Which IC50 did it give?
Answer: < 100 nM

Question: How did the IC50 turn out when CCOC[C@@]1(O)CC[C@H]2[C@H](CC[C@@H]3[C@@H]2CC[C@]2(C)[C@@H](C(=O)Nc4ncc(C#N)cn4)CC[C@@H]32)C1 [Compound 82, (3R,5R,8R,9R,10S,13S,14S,17S)—N-(5-cyanopyrimidin-2-yl)-3-(ethoxymethyl)-3-hydroxy-13-methylhexadecahydro-1H-cyclopenta[a]phenanthrene-17-carboxamide] was run?
Answer: 100 to 1000 nM

Question: CCC[C@@]1(O)CC[C@H]2[C@H](CC[C@@H]3[C@@H]2CC[C@]2(C)[C@@H](C(=O)Nc4cncc(C#N)n4)CC[C@@H]32)C1 [Compound 83, (3R,5R,8R,9R,10S,13S,14S,17S)—N-(6-cyanopyrazin-2-yl)-3-hydroxy-13-methyl-3-propylhexadecahydro-1H-cyclopenta[a]phenanthrene-17-carboxamide] was tested. Which IC50 did it give?
Answer: < 100 nM

Question: CCC[C@@]1(O)CC[C@H]2[C@H](CC[C@@H]3[C@@H]2CC[C@]2(C)[C@@H](C(=O)Nc4cc(C#N)ncn4)CC[C@@H]32)C1 [Compound 84, (3R,5R,8R,9R,10S,13S,14S,17S)—N-(6-cyanopyrimidin-4-yl)-3-hydroxy-13-methyl-3-propylhexadecahydro-1H-cyclopenta[a]phenanthrene-17-carboxamide] was tested. Which IC50 did it give?
Answer: < 100 nM

Question: With C[C@H]1C[C@H]2[C@H](CC[C@@H]3[C@@H]2CC[C@]2(C)[C@@H](C(=O)Nc4ccc(C#N)nc4)CC[C@@H]32)C[C@]1(C)O [Compound 85, (2S,3S,5R,8R,9R,10S,13S,14S,17S)—N-(6-cyanopyridin-3-yl)-3-hydroxy-2,3,13-trimethylhexadecahydro-1H-cyclopenta[a]phenanthrene-17-carboxamide] as the compound, how does the IC50 read?
Answer: < 100 nM

Question: Which IC50 does the source give for CCC[C@@]1(O)CC[C@H]2[C@H](CC[C@@H]3[C@@H]2CC[C@]2(C)[C@@H](C(=O)Nc4cnc(C#N)nc4)CC[C@@H]32)C1 [Compound 86, (3R,5R,8R,9R,10S,13S,14S,17S)—N-(2-cyanopyrimidin-5-yl)-3-hydroxy-13-methyl-3-propylhexadecahydro-1H-cyclopenta[a]phenanthrene-17-carboxamide] here?
Answer: 100 to 1000 nM

Question: How did the IC50 turn out when CCC[C@@]1(O)CC[C@H]2[C@H](CC[C@@H]3[C@@H]2CC[C@]2(C)[C@@H](C(=O)Nc4ccnc(C#N)n4)CC[C@@H]32)C1 [Compound 87, (3R,5R,8R,9R,10S,13S,14S,17S)—N-(2-cyanopyrimidin-4-yl)-3-hydroxy-13-methyl-3-propylhexadecahydro-1H-cyclopenta[a]phenanthrene-17-carboxamide] was run?
Answer: < 100 nM

Question: Which IC50 does the source give for C[C@H]1C[C@H]2[C@H](CC[C@@H]3[C@@H]2CC[C@]2(C)[C@@H](C(=O)Nc4cnc(C#N)cn4)CC[C@@H]32)C[C@]1(C)O [Compound 88, (2S,3S,5R,8R,9R,10S,13S,14S,17S)—N-(5-cyanopyrazin-2-yl)-3-hydroxy-2,3,13-trimethylhexadecahydro-1H-cyclopenta[a]phenanthrene-17-carboxamide] here?
Answer: < 100 nM

Question: COC[C@@]1(O)CC[C@H]2[C@H](CC[C@@H]3[C@@H]2CC[C@]2(C)[C@@H](C(=O)Nc4cnc(C#N)nc4)CC[C@@H]32)C1 [Compound 89, (3R,5R,8R,9R,10S,13S,14S,17S)—N-(2-cyanopyrimidin-5-yl)-3-hydroxy-3-(methoxymethyl)-13-methylhexadecahydro-1H-cyclopenta[a]phenanthrene-17-carboxamide] was tested. Which IC50 did it give?
Answer: < 100 nM
